pIC50: −log10 of the molar value.
Key:
[1] = target: TLR9 (Homo sapiens (Human), UniProt Q9NR96); assay: HEK293-Blue-hTLR-9 cells assay; assay type: cell-based; conditions: HEK293-Blue-hTLR9 cells, ODN2006 stimulation, 20 hrs, SEAP reporter; read-out: HEK/hTLR9 IC50
Description: A stable HEK293-Blue-hTLR-9 cell line was purchased from InvivoGen (Cat. #: hkb-htlr9, San Diego, Calif., USA). These cells were originally designed for studying the stimulation of human TLR9 by monitoring the activation of NF-κB. A SEAP (secreted embryonic alkaline phosphatase) reporter gene was placed under the control of the IFN-β minimal promoter fused to five NF-κB and AP-1-binding sites. The SEAP was induced by activating NF-κB and AP-1 via stimulating HEK-Blue hTLR9 cells with TLR9 ligands. Therefore the reporter expression was declined by TLR9 antagonist under the stimulation of a ligand, such as ODN2006 (Cat. #: tlr1-2006-1, Invivogen, San Diego, Calif., USA), for incubation of 20 hrs. The cell culture supernatant SEAP reporter activity was determined using QUANTI-Blue™ kit (Cat. #: rep-qb1, Invivogen, San Diego, Calif., USA) at a wavelength of 640 nm, a detection medium that turns purple or blue in the presence of alkaline phosphatase.
HEK293-Blue-hTLR9 cells were incubated at a density of 250,000˜450,000 cells/mL in a volume of 170 μL in a 96-well plate in Dulbecco's Modified Eagle's medium (DMEM) containing 4.5 g/L glucose, 50 U/mL penicillin, […], 2 mM L-glutamine, 10% (v/v) heat-inactivated fetal bovine serum with addition of 20 μL test compound in a serial dilution in the presence of final DMSO at 1% and 10 μL, of 20 uM ODN2006 in above DMEM, perform incubation under 37° C. in a CO2 incubator for 20 hrs. Then 20 μL of the supernatant from each well was incubated with 180 μL, Quanti-blue substrate solution at 37° C. for 2 h and the absorbance was read at 620655 nm using a spectrophotometer. The signaling pathway that TLR9 activation leads to downstream NF-κB activation has been widely accepted, and therefore similar reporter assay was modified for evaluating TLR9 antagonist.

[2] = Parallel Artificial Membrane Permeability Assay (PAMPA); assay type: in vitro ADME; conditions: for Membrane Retention / Papp at 4 h: PAMPA, pH 7.40, 4 hours; for Papp at 4 h: pH 7.4, room temperature, read-out: PAMPA Pe; for PAMPA category: classified by Pe and membrane retention
Experimental: PAMPA (Parallel Artificial Membrane Permeability Assay) is a first-line permeability screen for drug candidates. This assay mimics the transcellular absorption conditions using an artificial phospholipid membrane and generates a permeability value that can be used for compound ranking and optimization as well as input parameters for in silico models to predict intestinal absorption.
Permeation experiments are carried out in hydrophobic PVDF 96-well microtiter filter plates (MultiScreen Filter Plate, Millipore, #MAIPN4550). Each well is coated with PVDF membrane, which is prepared with 5 μL Dodecane (Sigma, D221104) that contains 1% lecithin (Sigma, P3556-1G).
The typical PAMPA experimental protocol is as follows: The donor plate is placed on a Teflon acceptor plate that has been pre-filled with […] of 100 mM PBS buffer (2.6 g KH2PO4 and 18.5 g K2HPO4·3H2O are dissolved in about 1000 mL of ultra-pure water and mixed thoroughly. The pH is adjusted to 7.40±0.05, using either 1 M sodium hydroxide or 1M hydrochloric acid) containing 5% DMSO. The filter on the bottom of each acceptor well is filled with 300 μL of 100 mM PBS buffer (2.6 g KH2PO4 and 18.5 g K2HPO4·3H2O are dissolved in about 1000 mL of ultra-pure water, mixed thoroughly. The pH was adjusted to 7.40±0.05, using either 1 M sodium hydroxide or 1M hydrochloric acid). The resulting sandwich is incubated at room temperature under constant shaking (300 rpm) for 4 hours. The sandwich is then disassembled. Before incubation, spike 20 μL dosing solution and mix with 250 μL PBS and 130 μL quench solution (acetonitrile) as TO sample. After incubation, collect 270 μL solutions from acceptor chamber, followed by the addition of 130 μL acetonitrile. Collect 20 μL solution from donor chamber and add 250 μL PBS and 130 μL acetonitrile. The concentration of compound in all samples are determined by LC-MS/MS and the equations for determining the permeability (Pe, 10^−6 cm/s) are as follows.
VD is the volume of the donor well; VR is the volume of the acceptor well; Area is the active surface area of membrane; Time is the incubation time (14,400 s in this assay); CR and CD are the concentrations of compound in acceptor and donor solutions, respectively, at the completion of the assay; C0 is the concentration of compound in donor solution before incubation.
The main readout of the PAMPA assay is the permeability value Pe expressed in 10^−6 cm/s. Secondary readouts determined are the amounts of compound in the donor and acceptor compartments as well as compound retention in the membrane. Depending on the permeation rate and the membrane retention, compounds are classified as “low” (Pe<0.2 and membrane retention<20%) or “medium & high” (Pe>=0.2; or Pe<0.2 and membrane retention>=20%). Each sample is measured in triplicate; the standard deviation is determined for the permeation constant Pe.

Chain of TLR9 (Q9NR96 26-1032): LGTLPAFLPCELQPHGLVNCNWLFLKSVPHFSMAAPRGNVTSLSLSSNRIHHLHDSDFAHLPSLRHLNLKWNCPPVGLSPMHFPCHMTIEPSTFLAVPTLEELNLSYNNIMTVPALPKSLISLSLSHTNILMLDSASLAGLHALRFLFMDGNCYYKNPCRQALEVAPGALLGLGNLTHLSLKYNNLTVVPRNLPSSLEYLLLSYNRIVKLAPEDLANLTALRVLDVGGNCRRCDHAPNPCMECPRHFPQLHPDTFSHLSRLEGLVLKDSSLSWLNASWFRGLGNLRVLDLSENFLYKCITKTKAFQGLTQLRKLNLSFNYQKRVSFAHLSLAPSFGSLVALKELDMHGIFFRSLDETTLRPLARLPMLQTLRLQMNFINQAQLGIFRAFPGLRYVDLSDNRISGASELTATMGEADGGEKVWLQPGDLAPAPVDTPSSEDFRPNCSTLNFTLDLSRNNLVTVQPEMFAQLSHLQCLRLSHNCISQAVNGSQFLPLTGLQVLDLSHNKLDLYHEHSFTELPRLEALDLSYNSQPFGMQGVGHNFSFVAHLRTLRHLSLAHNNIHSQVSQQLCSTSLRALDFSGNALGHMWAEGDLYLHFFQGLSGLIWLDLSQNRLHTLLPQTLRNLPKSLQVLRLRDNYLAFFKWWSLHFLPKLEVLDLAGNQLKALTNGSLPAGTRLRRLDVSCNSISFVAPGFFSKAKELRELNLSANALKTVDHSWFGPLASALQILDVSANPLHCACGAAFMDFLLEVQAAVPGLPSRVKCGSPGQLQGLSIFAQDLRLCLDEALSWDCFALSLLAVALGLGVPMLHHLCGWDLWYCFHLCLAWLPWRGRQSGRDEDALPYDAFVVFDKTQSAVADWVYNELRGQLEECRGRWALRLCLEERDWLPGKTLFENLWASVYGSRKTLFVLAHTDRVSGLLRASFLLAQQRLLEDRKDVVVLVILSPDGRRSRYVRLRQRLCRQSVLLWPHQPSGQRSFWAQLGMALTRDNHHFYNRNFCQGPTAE

Row | Structure (SMILES) | pIC50 [1] | Membrane Retention [2] | Papp at 4 h [2] | PAMPA category [2]
1 | Cc1cc(-c2ccc(N3CCC(N4CCNCC4)CC3)nc2C(C)C)cn2ccnc12 [Example 2, 6-[2-isopropyl-6-(4-piperazin-1-yl-1-piperidyl)-3-pyridyl]-8-methyl-imidazo[1,2-a]pyridine] | 6.82 | 22.73% | 0.87 ×10⁻⁶ cm/s | medium & high (“medium & high” (Pe>=0.2; or Pe<0.2 and membrane retention>=20%))
2 | Cc1cn2cc(-c3ccc(N4CCC(N5CCNCC5)CC4)nc3C(C)C)cc(C)c2n1 [Example 3, 6-[2-isopropyl-6-(4-piperazin-1-yl-1-piperidyl)-3-pyridyl]-2,8-dimethyl-imidazo[1,2-a]pyridine] | 6.70 | 20.3% | 0.8 ×10⁻⁶ cm/s | medium & high (“medium & high” (Pe>=0.2; or Pe<0.2 and membrane retention>=20%))
3 | Cc1cn2cc(-c3ccc(N4CCC(N)CC4)nc3C(C)C)cc(C)c2n1 [Example 4, 1-[5-(2,8-dimethylimidazo[1,2-a]pyridin-6-yl)-6-isopropyl-2-pyridyl]piperidin-4-amine] | 6.81 | 17.52% | 1.2 ×10⁻⁶ cm/s | medium & high (“medium & high” (Pe>=0.2; or Pe<0.2 and membrane retention>=20%))
4 | Cc1cn2cc(-c3ccc(N4CCNC[C@H]4CO)nc3C(C)C)cc(C)c2n1 [Example 5, [(2S)-1-[5-(2,8-dimethylimidazo[1,2-a]pyridin-6-yl)-6-isopropyl-2-pyridyl]piperazin-2-yl]methanol] | 6.64 | 17.82% | 2.1 ×10⁻⁶ cm/s | medium & high (“medium & high” (Pe>=0.2; or Pe<0.2 and membrane retention>=20%))
5 | Cc1c(-c2ccc(N3CCC(N4CCNCC4)CC3)nc2C(C)C)cn2ccnc2c1C [Example 7, 6-[2-isopropyl-6-(4-piperazin-1-yl-1-piperidyl)-3-pyridyl]-7,8-dimethyl-imidazo[1,2-a]pyridine] | 6.95 | 20.4% | 1.2 ×10⁻⁶ cm/s | medium & high (“medium & high” (Pe>=0.2; or Pe<0.2 and membrane retention>=20%))
6 | Cc1cn2cc(-c3ccc(N4CCN5CCNCC5C4)nc3C(C)C)cc(C)c2n1 (centres unmarked) [Example 8, 2-[5-(2,8-dimethylimidazo[1,2-a]pyridin-6-yl)-6-isopropyl-2-pyridyl]-1,3,4,6,7,8,9,9a-octahydropyrazino[1,2-a]pyrazine] | 6.53 | 34.49% | 0.85 ×10⁻⁶ cm/s | medium & high (“medium & high” (Pe>=0.2; or Pe<0.2 and membrane retention>=20%))
7 | Cc1cc(-c2cc(C)c3nccn3c2)cnc1N1CCC(N2CCN(C)CC2)CC1 [Example 9, 8-methyl-6-[5-methyl-6-[4-(4-methylpiperazin-1-yl)-1-piperidyl]-3-pyridyl]imidazo[1,2-a]pyridine] | 6.77 | 49% | 0.88 ×10⁻⁶ cm/s | medium & high (“medium & high” (Pe>=0.2; or Pe<0.2 and membrane retention>=20%))
8 | Cc1cc(-c2ccc(N3CCC(N4CCNCC4)CC3)nc2C(F)F)cn2ccnc12 [Example 10, 6-[2-(difluoromethyl)-6-(4-piperazin-1-yl-1-piperidyl)-3-pyridyl]-8-methyl-imidazo[1,2-a]pyridine] | 6.66 | 17.7% | 0.81 ×10⁻⁶ cm/s | medium & high (“medium & high” (Pe>=0.2; or Pe<0.2 and membrane retention>=20%))
9 | Cc1cn2cc(-c3ccc(N4CCC(N5CCNCC5)CC4)nc3C(F)F)cc(C)c2n1 [Example 11, 6-[2-(difluoromethyl)-6-(4-piperazin-1-yl-1-piperidyl)-3-pyridyl]-2,8-dimethyl-imidazo[1,2-a]pyridine] | 6.95 | 9.47% | 0.84 ×10⁻⁶ cm/s | medium & high (“medium & high” (Pe>=0.2; or Pe<0.2 and membrane retention>=20%))
10 | Cc1cn2cc(-c3ccc(N4CCC(N5CC(C)(N)C5)CC4)nc3C(F)F)cc(C)c2n1 [Example 12, 1-[1-[6-(difluoromethyl)-5-(2,8-dimethylimidazo[1,2-a]pyridin-6-yl)-2-pyridyl]-4-piperidyl]-3-methyl-azetidin-3-amine] | 6.84 | 7.03% | 1 ×10⁻⁶ cm/s | medium & high (“medium & high” (Pe>=0.2; or Pe<0.2 and membrane retention>=20%))
11 | CCc1nc(N2CCC(N3CC4(CNCCO4)C3)CC2)ccc1-c1cc(C)c2nccn2c1 [Example 14, 2-[1-[6-ethyl-5-(8-methylimidazo[1,2-a]pyridin-6-yl)-2-pyridyl]-4-piperidyl]-5-oxa-2,8-diazaspiro[3.5]nonane] | 6.67 | – | – | –
12 | CCc1nc(N2CCC(N3C[C@@H](N)[C@H](OC)C3)CC2)ccc1-c1cc(C)c2nccn2c1 [Example 15, (3R,4R)-1-[1-[6-ethyl-5-(8-methylimidazo[1,2-a]pyridin-6-yl)-2-pyridyl]-4-piperidyl]-4-methoxy-pyrrolidin-3-amine] | 6.54 | – | – | –
13 | CCc1nc(N2CCC(N3C[C@@H](N)[C@H](OC)C3)CC2)ccc1-c1cc(C)c2nc(C)cn2c1 [Example 17, (3R,4R)-1-[1-[5-(2,8-dimethylimidazo[1,2-a]pyridin-6-yl)-6-ethyl-2-pyridyl]-4-piperidyl]-4-methoxy-pyrrolidin-3-amine] | 6.65 | – | – | –
14 | CCc1nc(N2CCC(C)(N)CC2)ccc1-c1cc(C)c2nc(C)cn2c1 [Example 20, 1-[5-(2,8-dimethylimidazo[1,2-a]pyridin-6-yl)-6-ethyl-2-pyridyl]-4-methyl-piperidin-4-amine] | 6.97 | – | – | –
15 | CCc1nc(N2CCC(N3CCNCC3)CC2)ccc1-c1cc(C)c2nc(C)cn2c1 [Example 21, 6-[2-ethyl-6-(4-piperazin-1-yl-1-piperidyl)-3-pyridyl]-2,8-dimethyl-imidazo[1,2-a]pyridine] | 6.85 | 28% | 0.73 ×10⁻⁶ cm/s | medium & high (“medium & high” (Pe>=0.2; or Pe<0.2 and membrane retention>=20%))
16 | CCc1cc(-c2cc(C)c3nccn3c2)cnc1N1CCC2(CCNCC2)CC1 [Example 22, 3-[3-ethyl-5-(8-methylimidazo[1,2-a]pyridin-6-yl)-2-pyridyl]-3,9-diazaspiro[5.5]undecane] | 6.88 | 26.45% | 0.5 ×10⁻⁶ cm/s | medium & high (“medium & high” (Pe>=0.2; or Pe<0.2 and membrane retention>=20%))
17 | COc1nc(N2CCC(N3CCNCC3)CC2)ccc1-c1cc(C)c2nccn2c1 [Example 25, 6-[2-methoxy-6-(4-piperazin-1-yl-1-piperidyl)-3-pyridyl]-8-methyl-imidazo[1,2-a]pyridine] | 7.04 | – | – | –

— patent US20230279001A1, “IMIDAZO[1,2-A]PYRIDINE COMPOUNDS FOR THE TREATMENT OF AUTOIMMUNE DISEASE” (Hoffmann-La Roche Inc., priority 2020, published 2023)
